Reference: ChEMBL document CHEMBL1154508, “Discovery of GSK345931A: An EP(1) receptor antagonist with efficacy in preclinical models of inflammatory pain” (Bioorg Med Chem Lett, 2009)

What was measured:
[1] = biological target: T1, Prostaglandin E2 receptor EP3 subtype (Homo sapiens, UniProt P43115); test: Activity at EP3 receptor by FLIPR method
T1 sequence (P43115 whole entry): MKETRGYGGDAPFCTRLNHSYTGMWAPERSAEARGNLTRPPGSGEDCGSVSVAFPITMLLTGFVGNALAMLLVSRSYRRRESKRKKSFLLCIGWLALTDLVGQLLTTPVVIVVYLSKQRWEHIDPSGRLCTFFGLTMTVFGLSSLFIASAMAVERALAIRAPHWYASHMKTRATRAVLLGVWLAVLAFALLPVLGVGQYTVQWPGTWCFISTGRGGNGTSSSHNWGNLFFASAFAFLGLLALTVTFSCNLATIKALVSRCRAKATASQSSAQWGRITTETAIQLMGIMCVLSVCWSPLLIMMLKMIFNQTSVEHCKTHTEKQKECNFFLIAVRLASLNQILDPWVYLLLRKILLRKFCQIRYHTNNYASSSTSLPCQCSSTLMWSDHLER

[2] = Solubility in simulated gastric fluid after 2 hrs; type: physicochemical
[3] = biological target: T2, Prostaglandin E2 receptor EP1 subtype (Homo sapiens, UniProt P34995); test: Binding affinity to human EP1 receptor
T2 sequence (P34995 whole entry): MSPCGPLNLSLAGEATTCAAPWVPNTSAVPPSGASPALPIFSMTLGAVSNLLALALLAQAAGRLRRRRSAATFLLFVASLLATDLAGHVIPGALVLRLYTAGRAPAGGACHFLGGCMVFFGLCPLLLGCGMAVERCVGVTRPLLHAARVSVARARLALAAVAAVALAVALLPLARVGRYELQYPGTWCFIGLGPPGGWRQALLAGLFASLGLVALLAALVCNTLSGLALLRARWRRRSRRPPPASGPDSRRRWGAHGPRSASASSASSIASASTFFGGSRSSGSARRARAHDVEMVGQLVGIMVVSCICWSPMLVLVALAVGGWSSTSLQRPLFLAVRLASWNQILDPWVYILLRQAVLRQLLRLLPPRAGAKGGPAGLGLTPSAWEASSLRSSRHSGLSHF

[4] = Ratio of drug level in brain to blood of sub-chronic rat joint pain efficacy model satellite animal group at 5 mg/kg bid measured on day 5; type: ADME, organism-based; parameters: dose 5 mg/kg
[5] = Steady state blood clearance in rat at 0.28 mg/kg/hr, iv for 18 hrs; type: ADME, organism-based; parameters: route intravenous
[6] = Partition ratio of fraction unbound in rat brain to blood; type: ADME, tissue-based
[7] = Drug level in rat blood at 0.28 mg/kg/hr, iv for 18 hrs; type: ADME, organism-based; parameters: route intravenous; settings: read-out: Drug uptake
[8] = Drug level in blood of sub-chronic rat joint pain efficacy model satellite animal group at 20 mg/kg bid measured on day 5 after 1 hr post dose; type: ADME, organism-based; parameters: dose 20 mg/kg; settings: read-out: Drug uptake
[9] = Fraction unbound in rat brain
[10] = Drug level in brain of sub-chronic rat joint pain efficacy model treatment group at 5 mg/kg bid measured on day 5 after 1 hr post dose; type: ADME, organism-based; parameters: dose 5 mg/kg; settings: read-out: Drug uptake
[11] = Ratio of drug level in brain to blood in complete Freund's adjuvant-induced rat inflammatory pain model at 10 mg/kg, po after 1 hr; type: ADME, organism-based; parameters: dose 10 mg/kg, route oral
[12] = Drug level in blood of complete Freund's adjuvant-induced rat inflammatory pain model at 3 mg/kg, po after 1 hr; type: ADME, organism-based; parameters: dose 3 mg/kg, route oral; settings: read-out: Drug uptake
[13] = biological target: T3, Thromboxane A2 receptor (Homo sapiens, UniProt P21731); test: Activity at TP receptor by FLIPR method
T3 sequence (P21731 whole entry): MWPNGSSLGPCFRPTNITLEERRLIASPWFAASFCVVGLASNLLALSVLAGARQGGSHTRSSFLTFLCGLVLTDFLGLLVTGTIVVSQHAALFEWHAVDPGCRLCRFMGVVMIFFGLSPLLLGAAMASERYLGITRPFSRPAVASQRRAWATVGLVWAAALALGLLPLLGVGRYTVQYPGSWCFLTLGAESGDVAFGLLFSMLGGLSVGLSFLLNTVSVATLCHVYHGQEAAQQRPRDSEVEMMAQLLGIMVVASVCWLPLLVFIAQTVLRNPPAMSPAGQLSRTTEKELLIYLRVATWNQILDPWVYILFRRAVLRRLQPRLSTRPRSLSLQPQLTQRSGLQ

[14] = Drug level in brain of complete Freund's adjuvant-induced rat inflammatory pain model at 1 mg/kg, po after 1 hr; type: ADME, organism-based; parameters: dose 1 mg/kg, route oral; settings: read-out: Drug uptake
[15] = Lipophilicity, log D at pH 7.4; type: physicochemical; settings: buffer
[16] = Drug level in mouse blood at 3 mg/kg, po after 0.5 hrs; type: ADME, organism-based; parameters: dose 3 mg/kg, route oral; settings: read-out: Drug uptake
[17] = Drug level in blood of complete Freund's adjuvant-induced rat inflammatory pain model at 1 mg/kg, po after 1 hr; type: ADME, organism-based; parameters: dose 1 mg/kg, route oral; settings: read-out: Drug uptake
[18] = Drug level in brain of sub-chronic rat joint pain efficacy satellite animal group model at 5 mg/kg bid measured on day 5 after 1 hr post dose; type: ADME, organism-based; parameters: dose 5 mg/kg; settings: read-out: Drug uptake
[19] = Aqueous solubility in water after 24 hrs; type: physicochemical
[20] = Ratio of drug level in brain to blood of sub-chronic rat joint pain efficacy model treatment group at 20 mg/kg bid measured on day 5 after 1 hr post dose; type: ADME, organism-based; parameters: dose 20 mg/kg
[21] = Solubility in fed state simulated intestinal fluid after 2 hrs; type: physicochemical
[22] = biological target: Voltage-gated inwardly rectifying potassium channel KCNH2 (Homo sapiens, UniProt Q12809); test: Displacement of [3H]dofetilide from human ERG receptor
Chain of Voltage-gated inwardly rectifying potassium channel KCNH2 (Q12809 whole entry): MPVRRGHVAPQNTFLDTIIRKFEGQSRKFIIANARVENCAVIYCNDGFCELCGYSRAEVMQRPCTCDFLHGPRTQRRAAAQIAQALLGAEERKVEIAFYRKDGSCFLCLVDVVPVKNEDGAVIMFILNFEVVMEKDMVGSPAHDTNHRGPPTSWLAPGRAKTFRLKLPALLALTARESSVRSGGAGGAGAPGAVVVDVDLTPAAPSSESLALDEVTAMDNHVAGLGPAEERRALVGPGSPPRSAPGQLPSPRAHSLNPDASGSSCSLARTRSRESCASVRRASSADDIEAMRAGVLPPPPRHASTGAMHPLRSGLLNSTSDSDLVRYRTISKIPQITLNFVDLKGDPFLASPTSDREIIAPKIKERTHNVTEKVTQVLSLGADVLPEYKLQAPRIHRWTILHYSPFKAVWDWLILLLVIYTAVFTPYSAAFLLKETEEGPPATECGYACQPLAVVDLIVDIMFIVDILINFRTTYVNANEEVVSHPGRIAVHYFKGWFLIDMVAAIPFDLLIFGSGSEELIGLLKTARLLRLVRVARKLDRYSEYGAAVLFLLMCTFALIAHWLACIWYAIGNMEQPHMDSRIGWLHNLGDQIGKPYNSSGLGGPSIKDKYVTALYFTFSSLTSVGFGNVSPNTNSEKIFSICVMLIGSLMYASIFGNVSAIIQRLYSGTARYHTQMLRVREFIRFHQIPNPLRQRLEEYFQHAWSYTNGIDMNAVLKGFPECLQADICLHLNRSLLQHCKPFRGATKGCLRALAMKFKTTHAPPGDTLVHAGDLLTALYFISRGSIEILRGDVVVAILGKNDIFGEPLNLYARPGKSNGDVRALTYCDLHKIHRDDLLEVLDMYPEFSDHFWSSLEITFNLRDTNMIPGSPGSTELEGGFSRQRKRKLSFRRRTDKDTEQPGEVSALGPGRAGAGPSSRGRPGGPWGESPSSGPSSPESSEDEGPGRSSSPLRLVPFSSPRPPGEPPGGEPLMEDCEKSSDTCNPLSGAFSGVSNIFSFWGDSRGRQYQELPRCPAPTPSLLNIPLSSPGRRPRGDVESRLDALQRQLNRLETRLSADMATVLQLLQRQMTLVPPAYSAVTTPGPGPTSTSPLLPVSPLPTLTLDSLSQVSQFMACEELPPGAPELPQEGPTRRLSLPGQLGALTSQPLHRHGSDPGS

[23] = Ratio of drug level in brain to blood of sub-chronic rat joint pain efficacy model satellite animal group at 20 mg/kg bid measured on day 5; type: ADME, organism-based; parameters: dose 20 mg/kg
[24] = Ratio of drug level in brain to blood in complete Freund's adjuvant-induced rat inflammatory pain model at 2 mg/kg, po after 1 hr; type: ADME, organism-based; parameters: dose 2 mg/kg, route oral
[25] = Drug level in brain of complete Freund's adjuvant-induced rat inflammatory pain model at 10 mg/kg, po after 1 hr; type: ADME, organism-based; parameters: dose 10 mg/kg, route oral; settings: read-out: Drug uptake
[26] = Metabolic stability assessed as intrinsic clearance per gram of monkey liver microsomes; type: ADME, Macaca mulatta, Microsome; settings: rhesus monkey
[27] = Half life in cynomolgus monkey at 1 mg/kg, iv; type: ADME, organism-based, Macaca fascicularis; parameters: dose 1 mg/kg, route intravenous; settings: in vivo
[28] = Drug level in blood of sub-chronic rat joint pain efficacy model treatment group at 5 mg/kg bid measured on day 5 after 1 hr post dose; type: ADME, organism-based; parameters: dose 5 mg/kg; settings: read-out: Drug uptake
[29] = Solubility in fed state simulated intestinal fluid after 24 hrs; type: physicochemical

Ki [1]: 2 µM
solubility at 2 h [2]: 33 µg/mL
IC50 [3]: 0.016 µM
Kp at 5 day [4]: 0.54
clearance [5]: 8 mL/min/kg
Kbb [6]: 0.93
concentration at 18 h [7]: 1660 nM
concentration at 1 h [8]: 6770 nM
Fu [9]: 0.53%
concentration at 1 h [10]: 1070 nM
Kp at 1 h [11]: 0.48
concentration at 1 h [12]: 3330 nM
IC50 [13]: 1.58 µM
concentration at 1 h [14]: 317 nM
logD [15]: 1.9
concentration at 0.5 h [16]: 1120 nM
concentration at 1 h [17]: 948 nM
concentration at 1 h [18]: 822 nM
solubility at 24 h [19]: 612 µg/mL
Kp at 1 h [20]: 0.45
solubility at 2 h [21]: 1220 µg/mL
Kp at 5 day [23]: 0.5
Kp at 1 h [24]: 0.22
concentration at 1 h [25]: 7260 nM
CL [26]: 8 mL/min/g
half-life [27]: 48 min
concentration at 1 h [28]: 1630 nM
solubility at 24 h [29]: 1140 µg/mL
Compound: CC(C)COc1ccc(Cl)cc1-c1ccccc1-c1cccc(C(=O)[O-])n1.[Na+]
IC50 [22]: > 31.6 µM
